Data as given in PubChem BioAssay (NCI).
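In this assay, cells in 96-well plates receive the compound at five concentrations for 48 hours. Endpoints are linearly interpolated between the surrounding concentrations. The concentration for full growth arrest is given as TGI.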

Tests used:
Test in all cases: NCI tumour cell line growth inhibition, 48 h
HCT-15 colon = system: HCT-15 colon
786-0 renal = system: 786-0 renal
A549 NSCLC = system: A549 NSCLC
RPMI-8226 leukemia = system: RPMI-8226 leukemia
SK-MEL-2 melanoma = system: SK-MEL-2 melanoma
NCI-H522 lung = system: NCI-H522 lung
UACC-257 melanoma = system: UACC-257 melanoma
UACC-62 melanoma = system: UACC-62 melanoma
NCI/ADR-RES ovarian = system: NCI/ADR-RES ovarian
MDA-MB-435 = system: MDA-MB-435
PC-3 prostate = system: PC-3 prostate
SW-620 colon = system: SW-620 colon
IGROV1 ovarian = system: IGROV1 ovarian
OVCAR-5 ovarian = system: OVCAR-5 ovarian
SR leukemia = system: SR leukemia
BT-549 breast = system: BT-549 breast
A498 renal = system: A498 renal
K-562 leukemia = system: K-562 leukemia
DU-145 prostate = system: DU-145 prostate
KM12 colon = system: KM12 colon
CCRF-CEM leukemia = system: CCRF-CEM leukemia
MDA-MB-231 breast = system: MDA-MB-231 breast
NCI-H23 lung = system: NCI-H23 lung
CAKI-1 renal = system: CAKI-1 renal
U251 CNS = system: U251 CNS
NCI-H460 lung = system: NCI-H460 lung
MOLT-4 leukemia = system: MOLT-4 leukemia
SF-268 CNS = system: SF-268 CNS
SNB-75 CNS = system: SNB-75 CNS
LOX IMVI melanoma = system: LOX IMVI melanoma
T-47D breast = system: T-47D breast
UO-31 renal = system: UO-31 renal
SNB-19 CNS = system: SNB-19 CNS
SK-OV-3 ovarian = system: SK-OV-3 ovarian
HS 578T breast = system: HS 578T breast
SK-MEL-5 melanoma = system: SK-MEL-5 melanoma
HOP-92 NSCLC = system: HOP-92 NSCLC
OVCAR-3 ovarian = system: OVCAR-3 ovarian
HOP-62 NSCLC = system: HOP-62 NSCLC
COLO 205 colon = system: COLO 205 colon
TK-10 renal = system: TK-10 renal
SF-295 CNS = system: SF-295 CNS
MALME-3M melanoma = system: MALME-3M melanoma
HCT-116 colon = system: HCT-116 colon
MCF7 breast = system: MCF7 breast
NCI-H226 lung = system: NCI-H226 lung
OVCAR-4 ovarian = system: OVCAR-4 ovarian
ACHN renal = system: ACHN renal
EKVX NSCLC = system: EKVX NSCLC
HT29 colon = system: HT29 colon
SF-539 CNS = system: SF-539 CNS
HCC-2998 colon = system: HCC-2998 colon
MDA-N = system: MDA-N
OVCAR-8 ovarian = system: OVCAR-8 ovarian
SN12C renal = system: SN12C renal
RXF 393 renal = system: RXF 393 renal
M14 melanoma = system: M14 melanoma

## CCOC(=O)/C=C/[C@@H](CC)O[Si](C(C)C)(C(C)C)C(C)C
HCT-15 colon
  TGI: > 100 µM
786-0 renal
  TGI: > 100 µM
A549 NSCLC
  TGI: > 100 µM
RPMI-8226 leukemia
  TGI: 94.6 µM
SK-MEL-2 melanoma
  TGI: > 100 µM
NCI-H522 lung
  TGI: > 100 µM
UACC-257 melanoma
  TGI: > 100 µM
UACC-62 melanoma
  TGI: > 100 µM
NCI/ADR-RES ovarian
  TGI: > 100 µM
MDA-MB-435
  TGI: > 100 µM
PC-3 prostate
  TGI: > 100 µM
SW-620 colon
  TGI: > 100 µM
IGROV1 ovarian
  TGI: > 100 µM
OVCAR-5 ovarian
  TGI: > 100 µM
SR leukemia
  TGI: > 100 µM
BT-549 breast
  TGI: > 100 µM
A498 renal
  TGI: > 100 µM
K-562 leukemia
  TGI: > 100 µM
DU-145 prostate
  TGI: > 100 µM
KM12 colon
  TGI: > 100 µM
CCRF-CEM leukemia
  TGI: > 100 µM
MDA-MB-231 breast
  TGI: > 100 µM
NCI-H23 lung
  TGI: > 100 µM
CAKI-1 renal
  TGI: > 100 µM
U251 CNS
  TGI: > 100 µM
NCI-H460 lung
  TGI: > 100 µM
MOLT-4 leukemia
  TGI: > 100 µM
SF-268 CNS
  TGI: > 100 µM
SNB-75 CNS
  TGI: > 100 µM
LOX IMVI melanoma
  TGI: > 100 µM
T-47D breast
  TGI: > 100 µM
UO-31 renal
  TGI: > 100 µM
SNB-19 CNS
  TGI: > 100 µM
SK-OV-3 ovarian
  TGI: > 100 µM
HS 578T breast
  TGI: > 100 µM
SK-MEL-5 melanoma
  TGI: > 100 µM
HOP-92 NSCLC
  TGI: > 100 µM
OVCAR-3 ovarian
  TGI: > 100 µM
HOP-62 NSCLC
  TGI: > 100 µM
COLO 205 colon
  TGI: > 100 µM
TK-10 renal
  TGI: > 100 µM
SF-295 CNS
  TGI: > 100 µM
MALME-3M melanoma
  TGI: > 100 µM
HCT-116 colon
  TGI: > 100 µM
MCF7 breast
  TGI: > 100 µM
NCI-H226 lung
  TGI: > 100 µM
OVCAR-4 ovarian
  TGI: > 100 µM
ACHN renal
  TGI: > 100 µM
EKVX NSCLC
  TGI: > 100 µM
HT29 colon
  TGI: > 100 µM
SF-539 CNS
  TGI: > 100 µM
HCC-2998 colon
  TGI: > 100 µM
MDA-N
  TGI: > 100 µM
OVCAR-8 ovarian
  TGI: > 100 µM

## O=c1[nH]nc(-c2ccccc2)n1-n1cnnc1
HCT-15 colon
  TGI: > 100 µM
786-0 renal
  TGI: > 100 µM
A549 NSCLC
  TGI: > 100 µM
RPMI-8226 leukemia
  TGI: > 100 µM
SK-MEL-2 melanoma
  TGI: > 100 µM
NCI-H522 lung
  TGI: > 100 µM
UACC-257 melanoma
  TGI: > 100 µM
UACC-62 melanoma
  TGI: > 100 µM
NCI/ADR-RES ovarian
  TGI: > 100 µM
MDA-MB-435
  TGI: > 100 µM
PC-3 prostate
  TGI: > 100 µM
SW-620 colon
  TGI: > 100 µM
IGROV1 ovarian
  TGI: > 100 µM
OVCAR-5 ovarian
  TGI: > 100 µM
SR leukemia
  TGI: > 100 µM
BT-549 breast
  TGI: > 100 µM
A498 renal
  TGI: > 100 µM
K-562 leukemia
  TGI: > 100 µM
KM12 colon
  TGI: > 100 µM
CCRF-CEM leukemia
  TGI: > 100 µM
MDA-MB-231 breast
  TGI: > 100 µM
NCI-H23 lung
  TGI: > 100 µM
CAKI-1 renal
  TGI: > 100 µM
U251 CNS
  TGI: > 100 µM
NCI-H460 lung
  TGI: > 100 µM
MOLT-4 leukemia
  TGI: > 100 µM
SF-268 CNS
  TGI: > 100 µM
SNB-75 CNS
  TGI: > 100 µM
LOX IMVI melanoma
  TGI: > 100 µM
T-47D breast
  TGI: > 100 µM
UO-31 renal
  TGI: > 100 µM
SNB-19 CNS
  TGI: > 100 µM
SK-OV-3 ovarian
  TGI: > 100 µM
HS 578T breast
  TGI: > 100 µM
SK-MEL-5 melanoma
  TGI: > 100 µM
HOP-92 NSCLC
  TGI: > 100 µM
OVCAR-3 ovarian
  TGI: > 100 µM
HOP-62 NSCLC
  TGI: > 100 µM
COLO 205 colon
  TGI: > 100 µM
SN12C renal
  TGI: > 100 µM
TK-10 renal
  TGI: > 100 µM
RXF 393 renal
  TGI: > 100 µM
SF-295 CNS
  TGI: > 100 µM
MALME-3M melanoma
  TGI: > 100 µM
HCT-116 colon
  TGI: > 100 µM
MCF7 breast
  TGI: > 100 µM
NCI-H226 lung
  TGI: > 100 µM
OVCAR-4 ovarian
  TGI: > 100 µM
ACHN renal
  TGI: > 100 µM
EKVX NSCLC
  TGI: > 100 µM
M14 melanoma
  TGI: > 100 µM
HT29 colon
  TGI: > 100 µM
SF-539 CNS
  TGI: > 100 µM
HCC-2998 colon
  TGI: > 100 µM
MDA-N
  TGI: > 100 µM
OVCAR-8 ovarian
  TGI: > 100 µM
